# Data: patent US20030176465A1, “Cyclic amino acid derivatives” (priority 2000, published 2003)
# Where a name gives a salt, the structure may show the parent alone.
# Tests used:
# TF/VIIa = TF/VIIa (Homo sapiens, UniProt P08709); experiment: Inhibition of TF/VIIa (IC50, headed 'Affinity to Receptors'); assay type: biochemical
# Excerpt: The inhibition of factor VIIa by the compounds according to the invention and the measurement of the anticoagulant and antithrombotic activity can be determined by conventional in-vitro or in-vivo methods. A conventional method for the measurement of the inhibition of factor VIIa is described, for example, by H. F. Ronning et al. in Thrombosis Research 1996, 84, 73-81.
# factor Xa, human = factor Xa, human (Homo sapiens, UniProt P00742); experiment: Inhibition of factor Xa (IC50, headed 'Affinity to Receptors'); assay type: biochemical
# Excerpt: The inhibition of factor Xa by the compounds according to the invention and the measurement of the anticoagulant and antithrombotic activity can be determined by conventional in-vitro or in-vivo methods. A suitable method is described, for example, by J. Hauptmann et al. in Thrombosis and Haemostasis 1990, 63, 220-223.
# The inhibition of factor Xa can be measured, for example, by the method of T. Hara et al. in Thromb. Haemostas. 1994, 71, 314-319.
# Chain of factor Xa, human (P00742 235-488 limits assumed): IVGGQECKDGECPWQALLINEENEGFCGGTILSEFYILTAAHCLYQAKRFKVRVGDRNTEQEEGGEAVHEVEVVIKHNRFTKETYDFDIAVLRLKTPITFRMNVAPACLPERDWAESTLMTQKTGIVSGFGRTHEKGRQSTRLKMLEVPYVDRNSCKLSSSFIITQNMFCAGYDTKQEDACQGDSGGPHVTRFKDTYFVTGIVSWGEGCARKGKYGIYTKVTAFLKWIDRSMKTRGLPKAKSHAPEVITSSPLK
# Chain of factor Xa, human (P00742 41-179 limits assumed): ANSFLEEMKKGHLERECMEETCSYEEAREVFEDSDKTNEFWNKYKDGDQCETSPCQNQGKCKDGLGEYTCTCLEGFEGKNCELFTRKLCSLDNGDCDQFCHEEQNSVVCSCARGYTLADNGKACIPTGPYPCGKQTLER
# Chain of TF/VIIa (P08709 213-466 limits assumed): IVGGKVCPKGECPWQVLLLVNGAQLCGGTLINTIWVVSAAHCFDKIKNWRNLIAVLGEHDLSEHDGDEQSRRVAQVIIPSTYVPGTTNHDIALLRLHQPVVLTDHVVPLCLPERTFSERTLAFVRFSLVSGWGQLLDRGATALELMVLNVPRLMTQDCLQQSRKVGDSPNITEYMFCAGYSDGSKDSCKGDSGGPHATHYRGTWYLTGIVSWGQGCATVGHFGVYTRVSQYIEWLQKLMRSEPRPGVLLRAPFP
# Chain of TF/VIIa (P08709 61-212 limits assumed): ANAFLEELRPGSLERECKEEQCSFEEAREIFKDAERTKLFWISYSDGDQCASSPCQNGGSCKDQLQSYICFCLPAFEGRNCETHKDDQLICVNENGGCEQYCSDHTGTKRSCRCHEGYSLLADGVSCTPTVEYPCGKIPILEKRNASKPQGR
# Chain of TF/VIIa (P13726 33-295 partner): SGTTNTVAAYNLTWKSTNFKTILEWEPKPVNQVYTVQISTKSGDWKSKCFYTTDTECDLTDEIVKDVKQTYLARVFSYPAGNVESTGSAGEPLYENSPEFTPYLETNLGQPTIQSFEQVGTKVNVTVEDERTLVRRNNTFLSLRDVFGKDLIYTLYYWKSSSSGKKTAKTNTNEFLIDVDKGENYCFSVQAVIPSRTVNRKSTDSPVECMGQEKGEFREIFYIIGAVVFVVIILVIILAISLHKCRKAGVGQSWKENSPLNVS
IC50 (TF/VIIa) [nM],melting point,"IC50 (factor Xa, human) [nM]",Structure (SMILES)
440,98 °C (dec.),340,"NC(=NO)c1cccc(N2CCCCC2C(=O)Nc2ccc(-c3ccccc3S(N)(=O)=O)cc2)c1 [DA, N-(2′-sulfamoylbiphenyl-4-yl)-(2R,S)-1-[3-(N-hydroxyamidino)phenyl]piperidine-2-carboxamide]"
,180 °C (dec.),,"Nc1nc(F)c(F)c(N2CCC[C@H]2C(=O)Nc2ccc(-c3ccccc3S(N)(=O)=O)cc2)c1F (as salt: trifluoroacetate) [AF, N-(2′-sulfamoylbiphenyl-4-yl)-(2S)-1-(2-amino-3,5,6-trifluoropyridin-4-yl)pyrrolidine-2-carboxamide, trifluoroacetate]"
